Experimental data reported in ChEMBL document CHEMBL5728593, “Small molecule inhibitors of Galectin-3” (2021).

Target: Galectin-3 (Homo sapiens, UniProt P17931)
Assay: Biological Assay: ASSAY BUFFER Composition: 25 mM HEPES, 100 mM NaCl, 0.005% Tween 20, 0.05% BSA prepared in sterile water (all reagents from Sigma). PROTOCOL: The Gal-3 assays were performed in 384 white Opti plates in three replicates at room temperature with gentle shaking at 250-300 rpm From the original stocks, […] working stock concentrations of His-tagged recombinant human Gal-3 (hGal-3) and that of B-ASF were prepared. From the working stock, 20 μl of hGal-3 (15 nM) and 20 μl B-ASF (15 nM) were added to the plates. In Negative Control, only hGal-3 was added. A concentration range of 50× working stocks were prepared for the compounds in 100% DMSO. Aliquots of 1 uL of the compounds were added to the wells and pre-incubated with 20 μl hGal-3 per well for 30 minutes Then 20 μl B-ASF were added and incubated for another 1 hour. To detect the signal, 5 μ(final conc. of 1.0 nM) terbium labelled Anti-His antibody was added and incubated for 30 min followed by adding 5 μ(final conc. of 20 nM) Streptavidin d2 and incubation for another 1 hour. The assay signal was detected using HTRF screen protocol (Excitation wavelength=340 nm, emission wavelength=615 nm/665 nm) on Envision 2104 Multilabel Reader. Data analysed using Toolset and Curve Master. Results are reported in the experimental section (IC50 in μM).

Sequence of Galectin-3 (P17931 whole entry): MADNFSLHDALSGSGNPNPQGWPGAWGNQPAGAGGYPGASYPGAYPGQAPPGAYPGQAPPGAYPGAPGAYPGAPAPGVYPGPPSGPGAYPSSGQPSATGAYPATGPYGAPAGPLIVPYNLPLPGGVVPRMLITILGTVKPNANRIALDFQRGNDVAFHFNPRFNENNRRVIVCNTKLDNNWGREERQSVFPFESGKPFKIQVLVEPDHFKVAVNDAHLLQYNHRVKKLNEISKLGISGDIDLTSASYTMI

Structure (SMILES) | IC50
NC(=O)CO[C@@H]1[C@@H](n2cc(-c3cc(F)c(F)c(F)c3)nn2)[C@@H](O)[C@@H](CO)O[C@@H]1Sc1ccc(Cl)c(Cl)c1 | 200 nM
COCCO[C@@H]1[C@@H](n2cc(-c3cc(F)c(F)c(F)c3)nn2)[C@@H](O)[C@@H](CO)O[C@@H]1Sc1ccc(Cl)c(Cl)c1 | 224 nM
